Experimental data published in patent EP0908457B1, “3-(1,2-benzisothiazol- and isoxazol-5-Y1)-2,4(1H,3H)-pyrimidinedione or thione and 3-(1,2-benzisothiazol- and isoxazol-5-y1)-4(3H)-pyrimidinone or thione herbicidal agents” (BASF AKTIENGESELLSCHAFT, priority 1997, dated 1999).

Columns and labels:
[1] = system: Monochoria vaginalis, Presl.; assay: Preemergence weed control under flooded paddy conditions, MOOVA (Monochoria); type: in vivo; details: preemergence, flooded paddy; for herbicidal effect rating, MOOVA: rated 3-4 weeks after treatment; for MOOVA herbicidal effect rating: rated three to four weeks after treatment
[2] = system: Cyperus serotinus, Rottb.; assay: Preemergence weed control under flooded paddy conditions, CYPSE (Flatsedge); type: in vivo; details: preemergence; for herbicidal effect rating, CYPSE: rated 3-4 weeks after treatment; for CYPSE herbicidal effect rating: rated three to four weeks after treatment
Cyperus iria [3] = assay: Preemergence weed control under flooded paddy conditions, CYPIR (Rice Flatsedge); type: in vivo; details: preemergence, flooded paddy; for herbicidal effect rating, CYPIR: rated 3-4 weeks after treatment; for CYPIR herbicidal effect rating: rated three to four weeks after treatment
Sagittaria pygmaea, L. [4] = assay: Preemergence weed control under flooded paddy conditions, SAGPY (Arrowhead (Pygmaea)); type: in vivo; details: preemergence, flooded paddy; for herbicidal effect rating, SAGPY: rated 3-4 weeks after treatment; for SAGPY herbicidal effect rating: rated three to four weeks after treatment
[5] = system: Echinochloa oryzoides (Ard.) Fritsch.; assay: Postemergence weed control under flooded paddy conditions, ECHORC (Watergrass (Calif.)); type: in vivo; details: rated three to four weeks after treatment
[6] = system: Oryza sativa, (L.) Tebonnet; assay: Rice tolerance to post-transplant applications under flooded paddy conditions (Example 187), ORYSAT (Rice, Tebonnet); details: for herbicidal effect rating ORYSAT: rated 3-4 weeks after treatment; for ORYSAT herbicidal effect rating: rated three to four weeks after treatment; on herbicidal effect rating ORYSAT: meaning of each grade not given here
[7] = system: Monochoria vaginalis, Presl.; assay: Postemergence weed control under flooded paddy conditions, MOOVA (Monochoria); type: in vivo; details: rated three to four weeks after treatment
Cyperus iria [8] = assay: Postemergence weed control under flooded paddy conditions, CYPIR (Rice Flatsedge); type: in vivo; details: rated three to four weeks after treatment
[9] = system: Cyperus serotinus, Rottb.; assay: Postemergence weed control under flooded paddy conditions, CYPSE (Flatsedge); type: in vivo; details: rated three to four weeks after treatment
[10] = system: Oryza sativa, (L.) Tebonnet; assay: Rice tolerance to post-transplant applications under flooded paddy conditions (Example 188), ORYSAT (Rice, Tebonnet); details: rated three to four weeks after treatment
Sagittaria pygmaea, L. [11] = assay: Postemergence weed control under flooded paddy conditions, SAGPY (Arrowhead (Pygmaea)); type: in vivo; details: rated three to four weeks after treatment
[12] = system: Echinochloa oryzoides (Ard.) Fritsch.; assay: Preemergence weed control under flooded paddy conditions, ECHORC (Watergrass (Calif.)); type: in vivo; details: preemergence, flooded paddy; for herbicidal effect rating, ECHORC: rated 3-4 weeks after treatment; for ECHORC herbicidal effect rating: rated three to four weeks after treatment

## C#CCOC(=O)C(C)(C)Oc1ccc(C)cc1-c1nsc2ccc(-n3c(=O)cc(C(F)(F)F)n(C)c3=O)cc12 [Example 528, Propionic acid, 2-{{2-{5-[3,6-dihydro-3-methyl-2,6-dioxo-4-(trifluoromethyl)-1(2H)-pyrimidinyl]-1,2-benzisothiazol-3-yl}-p-tolyl}oxy}-2-methyl-, 2-propynyl ester]
[1]; Rate 0.0320 kg/ha
  herbicidal effect rating, MOOVA: 9.0
[1]; Rate 0.0620 kg/ha
  herbicidal effect rating, MOOVA: 9.0
[1]; Rate 0.1250 kg/ha
  herbicidal effect rating, MOOVA: 9.0
[1]; Rate 0.2500 kg/ha
  herbicidal effect rating, MOOVA: 9.0
[2]; Rate 0.0320 kg/ha
  herbicidal effect rating, CYPSE: 0.0
[2]; Rate 0.0620 kg/ha
  herbicidal effect rating, CYPSE: 0.0
[2]; Rate 0.1250 kg/ha
  herbicidal effect rating, CYPSE: 0.0
[2]; Rate 0.2500 kg/ha
  herbicidal effect rating, CYPSE: 0.0
Cyperus iria [3]; Rate 0.0320 kg/ha
  herbicidal effect rating, CYPIR: 4.5
Cyperus iria [3]; Rate 0.0620 kg/ha
  herbicidal effect rating, CYPIR: 5.0
Cyperus iria [3]; Rate 0.1250 kg/ha
  herbicidal effect rating, CYPIR: 5.0
Cyperus iria [3]; Rate 0.2500 kg/ha
  herbicidal effect rating, CYPIR: 9.0
Sagittaria pygmaea, L. [4]; Rate 0.0320 kg/ha
  herbicidal effect rating, SAGPY: 1.0
Sagittaria pygmaea, L. [4]; Rate 0.0620 kg/ha
  herbicidal effect rating, SAGPY: 0.0
Sagittaria pygmaea, L. [4]; Rate 0.1250 kg/ha
  herbicidal effect rating, SAGPY: 1.5
Sagittaria pygmaea, L. [4]; Rate 0.2500 kg/ha
  herbicidal effect rating, SAGPY: 3.0
[5]; Rate 0.0320 kg/ha
  herbicidal effect rating, ECHORC: 0.0
[5]; Rate 0.0620 kg/ha
  herbicidal effect rating, ECHORC: 7.0
[5]; Rate 0.1250 kg/ha
  herbicidal effect rating, ECHORC: 9.0
[5]; Rate 0.2500 kg/ha
  herbicidal effect rating, ECHORC: 9.0
[6]; Rate 0.0320 kg/ha
  herbicidal effect rating ORYSAT: 1.5
[6]; Rate 0.0620 kg/ha
  herbicidal effect rating ORYSAT: 3.5
[6]; Rate 0.1250 kg/ha
  herbicidal effect rating ORYSAT: 7.0
[6]; Rate 0.2500 kg/ha
  herbicidal effect rating ORYSAT: 9.0
[7]; Rate 0.0320 kg/ha
  herbicidal effect rating, MOOVA: 0.0
[7]; Rate 0.0620 kg/ha
  herbicidal effect rating, MOOVA: 0.0
[7]; Rate 0.1250 kg/ha
  herbicidal effect rating, MOOVA: 9.0
[7]; Rate 0.2500 kg/ha
  herbicidal effect rating, MOOVA: 9.0
Cyperus iria [8]; Rate 0.0320 kg/ha
  herbicidal effect rating, CYPIR: 6.0
Cyperus iria [8]; Rate 0.0620 kg/ha
  herbicidal effect rating, CYPIR: 6.0
Cyperus iria [8]; Rate 0.1250 kg/ha
  herbicidal effect rating, CYPIR: 6.0
Cyperus iria [8]; Rate 0.2500 kg/ha
  herbicidal effect rating, CYPIR: 6.0
[9]; Rate 0.0320 kg/ha
  herbicidal effect rating, CYPSE: 0.0
[9]; Rate 0.0620 kg/ha
  herbicidal effect rating, CYPSE: 0.0
[9]; Rate 0.1250 kg/ha
  herbicidal effect rating, CYPSE: 0.0
[9]; Rate 0.2500 kg/ha
  herbicidal effect rating, CYPSE: 9.0
[10]; Rate 0.0320 kg/ha
  herbicidal effect rating, ORYSAT (rice tolerance): 0.0
[10]; Rate 0.0620 kg/ha
  herbicidal effect rating, ORYSAT (rice tolerance): 0.0
[10]; Rate 0.1250 kg/ha
  herbicidal effect rating, ORYSAT (rice tolerance): 2.0
[10]; Rate 0.2500 kg/ha
  herbicidal effect rating, ORYSAT (rice tolerance): 3.0
Sagittaria pygmaea, L. [11]; Rate 0.0320 kg/ha
  herbicidal effect rating, SAGPY: 0.0
Sagittaria pygmaea, L. [11]; Rate 0.0620 kg/ha
  herbicidal effect rating, SAGPY: 0.0
Sagittaria pygmaea, L. [11]; Rate 0.1250 kg/ha
  herbicidal effect rating, SAGPY: 0.0
Sagittaria pygmaea, L. [11]; Rate 0.2500 kg/ha
  herbicidal effect rating, SAGPY: 3.0
[12]; Rate 0.0320 kg/ha
  herbicidal effect rating, ECHORC: 9.0
[12]; Rate 0.0620 kg/ha
  herbicidal effect rating, ECHORC: 9.0
[12]; Rate 0.1250 kg/ha
  herbicidal effect rating, ECHORC: 9.0
[12]; Rate 0.2500 kg/ha
  herbicidal effect rating, ECHORC: 9.0

## COc1c(-c2nsc3ccc(-n4c(=O)cc(C(F)(F)F)n(C)c4=O)cc23)ccc(C)c1C [Example 267, 2,4(1H,3H)-Pyrimidinedione, 3-[3-(2-methoxy-3,4-xylyl)-1,2-benzisothiazol-5-yl]-1-methyl-6-(trifluoromethyl)-]
[1]; Rate 0.0320 kg/ha
  MOOVA herbicidal effect rating: 7.5
[1]; Rate 0.0620 kg/ha
  MOOVA herbicidal effect rating: 9.0
[1]; Rate 0.1250 kg/ha
  MOOVA herbicidal effect rating: 9.0
[1]; Rate 0.2500 kg/ha
  MOOVA herbicidal effect rating: 9.0
[2]; Rate 0.0320 kg/ha
  CYPSE herbicidal effect rating: 0.0
[2]; Rate 0.0620 kg/ha
  CYPSE herbicidal effect rating: 0.0
[2]; Rate 0.1250 kg/ha
  CYPSE herbicidal effect rating: 5.5
[2]; Rate 0.2500 kg/ha
  CYPSE herbicidal effect rating: 9.0
Cyperus iria [3]; Rate 0.0320 kg/ha
  CYPIR herbicidal effect rating: 8.0
Cyperus iria [3]; Rate 0.0620 kg/ha
  CYPIR herbicidal effect rating: 8.0
Cyperus iria [3]; Rate 0.1250 kg/ha
  CYPIR herbicidal effect rating: 9.0
Cyperus iria [3]; Rate 0.2500 kg/ha
  CYPIR herbicidal effect rating: 9.0
Sagittaria pygmaea, L. [4]; Rate 0.0320 kg/ha
  SAGPY herbicidal effect rating: 0.0
Sagittaria pygmaea, L. [4]; Rate 0.0620 kg/ha
  SAGPY herbicidal effect rating: 1.0
Sagittaria pygmaea, L. [4]; Rate 0.1250 kg/ha
  SAGPY herbicidal effect rating: 3.0
Sagittaria pygmaea, L. [4]; Rate 0.2500 kg/ha
  SAGPY herbicidal effect rating: 5.0
[5]; Rate 0.0320 kg/ha
  herbicidal effect rating, ECHORC: 4.0
[5]; Rate 0.0620 kg/ha
  herbicidal effect rating, ECHORC: 8.0
[5]; Rate 0.1250 kg/ha
  herbicidal effect rating, ECHORC: 9.0
[5]; Rate 0.2500 kg/ha
  herbicidal effect rating, ECHORC: 9.0
[6]; Rate 0.0320 kg/ha
  ORYSAT herbicidal effect rating: 2.0
[6]; Rate 0.0620 kg/ha
  ORYSAT herbicidal effect rating: 3.0
[6]; Rate 0.1250 kg/ha
  ORYSAT herbicidal effect rating: 4.5
[6]; Rate 0.2500 kg/ha
  ORYSAT herbicidal effect rating: 6.0
[7]; Rate 0.0320 kg/ha
  herbicidal effect rating, MOOVA: 9.0
[7]; Rate 0.0620 kg/ha
  herbicidal effect rating, MOOVA: 9.0
[7]; Rate 0.1250 kg/ha
  herbicidal effect rating, MOOVA: 9.0
[7]; Rate 0.2500 kg/ha
  herbicidal effect rating, MOOVA: 9.0
Cyperus iria [8]; Rate 0.0320 kg/ha
  herbicidal effect rating, CYPIR: 9.0
Cyperus iria [8]; Rate 0.0620 kg/ha
  herbicidal effect rating, CYPIR: 9.0
Cyperus iria [8]; Rate 0.1250 kg/ha
  herbicidal effect rating, CYPIR: 9.0
Cyperus iria [8]; Rate 0.2500 kg/ha
  herbicidal effect rating, CYPIR: 9.0
[9]; Rate 0.0320 kg/ha
  herbicidal effect rating, CYPSE: 0.0
[9]; Rate 0.0620 kg/ha
  herbicidal effect rating, CYPSE: 0.0
[9]; Rate 0.1250 kg/ha
  herbicidal effect rating, CYPSE: 0.0
[9]; Rate 0.2500 kg/ha
  herbicidal effect rating, CYPSE: 0.0
[10]; Rate 0.0320 kg/ha
  herbicidal effect rating, ORYSAT (rice tolerance): 2.0
[10]; Rate 0.0620 kg/ha
  herbicidal effect rating, ORYSAT (rice tolerance): 5.0
[10]; Rate 0.1250 kg/ha
  herbicidal effect rating, ORYSAT (rice tolerance): 6.0
[10]; Rate 0.2500 kg/ha
  herbicidal effect rating, ORYSAT (rice tolerance): 7.0
Sagittaria pygmaea, L. [11]; Rate 0.0320 kg/ha
  herbicidal effect rating, SAGPY: 0.0
Sagittaria pygmaea, L. [11]; Rate 0.0620 kg/ha
  herbicidal effect rating, SAGPY: 0.0
Sagittaria pygmaea, L. [11]; Rate 0.1250 kg/ha
  herbicidal effect rating, SAGPY: 0.0
Sagittaria pygmaea, L. [11]; Rate 0.2500 kg/ha
  herbicidal effect rating, SAGPY: 0.0
[12]; Rate 0.0320 kg/ha
  ECHORC herbicidal effect rating: 9.0
[12]; Rate 0.0620 kg/ha
  ECHORC herbicidal effect rating: 9.0
[12]; Rate 0.1250 kg/ha
  ECHORC herbicidal effect rating: 9.0
[12]; Rate 0.2500 kg/ha
  ECHORC herbicidal effect rating: 9.0
